From US11998016B2, “Use of Chaetomium globosum strain in controlling fusarium crown rot of wheat” (priority 2020, dated 2024)

Tested on: Fusarium crown rot (FCR) of wheat, Fusarium pseudograminearum G14LY24-2
Assay: Field effect of seed coating on controlling FCR of wheat (inoculated field disease nurseries)
Assay type: in vivo
Conditions: for Average disease rating: grading 0-5
Method: Wheat grains are soaked for 12 h, sterilized for 60 min, allowed to stand for two days, sterilized for 30-60 min, and cooled for later use. Fusarium pseudograminearum G14LY24-2 was selected on a PDA plate. After growing for three days, marginal hyphae were picked to grow on a fresh PDA plate. After three days, the hyphal pellets were plated into a wheat grain polyethylene bag with sterilized wheat grains. The hyphal pellets grew at room temperature for two weeks until the fungi grew all over wheat grains, and stored in a refrigerator at 4° C. after air-drying.
Disease nurseries were constructed in a 1:1 ratio of seed quantity to inoculum volume ratio. The inoculation was located 3-5 cm above the seed. The seeds to be sown and the inoculum were mixed first, and after mixing well, well-mixed sowing materials were sown by a planter.
Selected C. globosum strains were activated on a fresh PDA, and hyphal pellets were picked into 9 cm PDA Petri dishes. After 15 days, perithecia were ground in sterile water using a spreading rod, and ascospore suspension was controlled at about 100 mL, with a concentration of 1.0-2.0×10^7 ascospores/mL; in case of a low concentration, the suspension was centrifuged at 3,000 rpm for 5 min, dewatered, and resuspended. 75 mL of fungal suspension (approximately 1.3×10^7 ascospores/mL) was mixed with 25 mL of 4 wt % carboxymethyl cellulose salt solution into 100 mL of fungal suspension with 1% carboxymethyl cellulose salt (approximately 1.0×10^7 ascospores/mL). 100 mL of 1×10^7 ascospores/mL fungal suspension with 1% carboxymethyl cellulose salt was mixed well with 5 kg of wheat seeds. Chaetomium globosum strain 12XP1-2-3-coated seeds were rinsed and spread on a plate to count spores on the seed surface, which was 5.0-5.3×10^4 ascospores per seed. The wheat cultivar in 2018 was “Bainong 207”, the wheat cultivar in 2019 was “Aikang 58”, the control agent was 30 g/L difenoconazole, and the seeds were dressed in an agent-to-seed ratio of 1:333.
Field sampling method: At the seedling stage, the emergence rate was investigated, and the plant height, tap root length, fresh weight, dry weight, and colonization ability of C. globosum were measured; at the tillering stage, the morbidity was investigated, and the plant height, tap root length, fresh weight, dry weight, tiller number, and colonization ability of C. globosum were measured; the morbidity was investigated at the jointing stage; the white ear rate was investigated at the filling stage. The method was to investigate the number of white heads and total number of ears per 1 m2 plot and calculate the white ear rate of the plot. The diseased stem rate was investigated at the maturing stage; 20 stems were sampled at five points in each plot, a total of 100 stems for each treatment were brought back to the laboratory, and leaf sheaths were removed thoroughly to determine the disease rating.
The grading standard for adult stage was as follows: 0=no disease; 1=browning in the first node; 2=browning in the second node; 3=browning in the third node; 4=browning in the peduncle or white ears at the filling stage; and 5=diseased plant without ear bearing. The yield was determined during harvest.

[1] = “Aikang 58” in Wenxian in 2019, wheat filling stage
[2] = “Bainong 207” in Kaifeng in 2018, wheat filling stage

CC1COC(Cn2cncn2)(c2ccc(Oc3ccc(Cl)cc3)cc2Cl)O1 (stereo not drawn) [Difenoconazole, difenoconazole]
Disease index [1]: 9.4
Diseased stem rate % [1]: 26.0%
Average disease rating [1]: 0.5
Disease index [2]: 12.9
Diseased stem rate % [2]: 30.0%
Average disease rating [2]: 0.6
